In patent publication US11780841B2, “3,6-methano-1H-pyrrolo[3,2-b]pyridine and 3,6-methano-1H-pyrrolo[3,2-c]pyridine compounds and medicaments using same” (priority 2018, dated 2023):

system: recombinant rabies virus 1088 strain expressing Gaussia Luciferase (GLuc) (1088/GLuc); format: cell-based; conditions: read-out: Anti-rabies activity

| Structure (SMILES) | IC50 [µM] |
| --- | --- |
| NC(=O)CCNC(=O)[C@]12NC[C@H]3C[C@H]1CN(Cc1ccccc1)[C@H]2[C@@H]3Cc1cccc2ccccc12 [IB-813] | < 5 |
| CC(C)CNC(=O)[C@@]12C[C@@H]3CN(CC(C)C)[C@@H]([C@@H]3CN1)[C@H]2CCc1ccccc1 [IF-679] | < 5 |
| CC(C)CNC(=O)[C@@]12C[C@@H]3CN(CCc4ccccc4)[C@@H]([C@@H]3CN1)[C@H]2Cc1ccccc1 [IF-641] | < 5 |
| CC(C)CC[C@@H]1[C@H]2CN[C@@]3(C(=O)NC(C)C)[C@@H](C2)CN(Cc2ccc(O)cc2)[C@@H]13 [IB-501] | < 5 |
| CC(C)C[C@@H]1[C@H]2CN[C@@]3(C(=O)NCCO)[C@@H](C2)CN(Cc2cccc4ccccc24)[C@@H]13 [IB-643] | 10 to 30 |
| CC(C)C[C@@H]1[C@@H]2[C@@H]3CN[C@@]1(C(=O)NCc1cccc4ccccc14)C[C@@H]3CN2CC(N)=O (relative stereo) [IF-81] | 10 to 30 |
| CC(C)CC1C2C3C=NC1(C(=O)NCc1ccc4ccccc4c1)CC3CN2Cc1ccccc1 (stereo not shown) [IIF-102] | < 5 |
| CC(C)CNC(=O)[C@@]12C[C@@H]3CN(Cc4ccc(F)cc4)[C@@H]([C@@H]3CN1)[C@H]2CCc1ccccc1 [IF-652] | < 5 |
| O=C(NCCc1ccccc1)[C@@]12C[C@@H]3CN(Cc4ccc(O)cc4)[C@@H]([C@@H]3CN1)[C@H]2Cc1cccc2ccccc12 [IF-580] | 10 to 30 |
| CC(C)CC1C2CNC3(C(=O)NCCC(N)=O)C(C2)CN(Cc2cccc4ccccc24)C13 (stereo not shown) [IB-520] | < 5 |
| CC(C)CCN1C[C@H]2C[C@]3(C(=O)NCc4ccc(F)cc4)NC[C@H]2[C@H]1[C@H]3CC(C)C (relative stereo) [IF-548] | 10 to 30 |
| CC(C)C[C@@H]1[C@H]2CN[C@@]3(C(=O)NCCO)[C@@H](C2)CN(CC2CCCCC2)[C@@H]13 [IB-646] | 10 to 30 |
| Cc1cccc(C[C@@H]2[C@@H]3[C@@H]4CN[C@@]2(C(=O)NCc2ccccc2)C[C@@H]4CN3CC(C)C)c1 (relative stereo) [IF-13] | 10 to 30 |
| CC(C)CC1C2C3C=NC1(C(=O)NCc1ccccc1)CC3CN2Cc1ccc(N(C)C)cc1 (stereo not shown) [IIF-94] | 5 to 10 |
| CC(C)CNC(=O)[C@]12NC[C@H]3C[C@H]1CN(Cc1cccc4ccccc14)[C@H]2[C@@H]3Cc1ccc(O)cc1 [IB-763] | 10 to 30 |
| CCCCCCNC(=O)[C@]12NC[C@H]3C[C@H]1CN(CC(N)=O)[C@H]2[C@@H]3Cc1ccccc1 [IB-105] | 10 to 30 |
| CC(C)CCN1CC2CC3C=NC2(C(=O)NCc2ccc(Cl)cc2)C1C3CC(C)C (stereo not shown) [IIB-103] | 5 to 10 |
| CC(C)CC[C@@H]1[C@@H]2[C@@H]3CN[C@@]1(C(=O)NCCC(N)=O)C[C@@H]3CN2CC(C)C [IF-300] | 10 to 30 |
| CC(C)CC1C2C3C=NC1(C(=O)NCc1ccccc1)CC3CN2Cc1ccc(OC(F)(F)F)cc1 (stereo not shown) [IIF-96] | 5 to 10 |
| Cc1ccc(CN2C[C@@H]3C[C@@H]4CN(C(=O)OCC(C)C)[C@]3(C(=O)NCc3ccccc3)[C@@H]2[C@@H]4CC(C)C)cc1 (relative stereo) [IB-886] | 5 to 10 |
| O=C(NCCc1ccccc1)[C@@]12C[C@@H]3CN(Cc4ccccc4)[C@@H]([C@@H]3CN1)[C@H]2Cc1ccc(O)cc1 [IF-722] | < 5 |
| CCCCCCNC(=O)[C@]12NC[C@H]3C[C@H]1CN(Cc1ccc(F)cc1)[C@H]2[C@@H]3Cc1ccc(O)cc1 [IB-656] | < 5 |
| CC(C)CCNC(=O)[C@]12NC[C@H]3C[C@H]1CN(CC(N)=O)[C@H]2[C@@H]3Cc1cccc2ccccc12 [IB-103] | 10 to 30 |
| CC(C)CCN1C[C@@H]2C[C@@H]3CN[C@]2(C(=O)NCc2ccccc2)[C@@H]1[C@@H]3CCC(=O)O [IB-505] | 10 to 30 |
| CC(C)CC1C2C3C=NC1(C(=O)NCc1ccccc1)CC3CN2Cc1cccc(Cl)c1 (stereo not shown) [IIF-84] | 5 to 10 |
| CC(C)CNC(=O)[C@]12NC[C@H]3C[C@H]1CN(Cc1ccccc1)[C@H]2[C@@H]3CCCNC(=N)N [IB-198] | 10 to 30 |
| CC(C)CNC(=O)[C@@]12C[C@@H]3CN(Cc4ccc(F)cc4)[C@@H]([C@@H]3CN1)[C@H]2Cc1ccccc1 [IF-653] | 10 to 30 |

same assay, conditions: read-out: IC50

| Structure (SMILES) | IC50 [µM] |
| --- | --- |
| Cc1cccc(C[C@@H]2[C@@H]3[C@@H]4CN[C@@]2(C(=O)NCc2ccccc2)C[C@@H]4CN3CC(C)C)c1 (relative stereo) [IF-13] | 13.1 |
